This passage reports Ki results from ChEMBL document CHEMBL5725908, “Tricyclic DLK inhibitors and uses thereof” (2018).

This experiment addresses T1, Mitogen-activated protein kinase kinase kinase 12 (Homo sapiens, UniProt Q12852).
T1 sequence (Q12852 whole entry): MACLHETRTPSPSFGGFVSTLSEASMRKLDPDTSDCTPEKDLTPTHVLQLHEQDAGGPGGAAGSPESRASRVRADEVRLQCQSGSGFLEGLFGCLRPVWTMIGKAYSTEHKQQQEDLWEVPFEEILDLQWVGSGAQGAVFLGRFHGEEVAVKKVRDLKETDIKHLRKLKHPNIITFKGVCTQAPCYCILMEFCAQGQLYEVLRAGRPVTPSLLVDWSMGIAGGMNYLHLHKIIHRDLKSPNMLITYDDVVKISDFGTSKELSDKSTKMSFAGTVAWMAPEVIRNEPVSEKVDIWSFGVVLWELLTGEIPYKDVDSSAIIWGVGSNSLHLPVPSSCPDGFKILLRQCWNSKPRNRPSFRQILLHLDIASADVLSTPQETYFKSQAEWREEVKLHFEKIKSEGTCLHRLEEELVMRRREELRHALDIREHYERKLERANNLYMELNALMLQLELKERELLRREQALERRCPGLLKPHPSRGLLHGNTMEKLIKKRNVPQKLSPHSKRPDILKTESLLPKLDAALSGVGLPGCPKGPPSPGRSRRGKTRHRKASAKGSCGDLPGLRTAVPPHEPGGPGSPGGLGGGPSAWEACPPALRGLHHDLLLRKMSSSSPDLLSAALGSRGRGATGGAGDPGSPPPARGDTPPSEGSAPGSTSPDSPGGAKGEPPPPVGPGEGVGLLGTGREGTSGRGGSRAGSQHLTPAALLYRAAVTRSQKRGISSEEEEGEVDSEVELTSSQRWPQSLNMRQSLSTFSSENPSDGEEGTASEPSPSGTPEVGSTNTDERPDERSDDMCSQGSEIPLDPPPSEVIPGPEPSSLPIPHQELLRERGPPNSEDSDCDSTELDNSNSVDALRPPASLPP
The experiment can be described thus: DLK TR-FRET Inhibition Assay: DLK kinase reactions (20 μL) containing 5 nM N-terminally GST-tagged DLK (catalytic domain amino acid 1-520) (Carna Bioscience), 40 nM N-terminally HIS tagged MKK4 K131M substrate, and 30 μM ATP in kinase reaction buffer (50 mM HEPES, pH 7.5, 0.01% Triton X-100, 0.01% Bovine γ-Globulins, 2 mM DTT, 10 mM MgCl2 and 1 mM EGTA), and testing compound 1:3 serial diluted starting at 20 uM were incubated at ambient temperature for 60 minutes in 384 well OptiPlate (Perkin Elmer). To quench kinase reactions and detect phosphorylated MKK4, 15 μL of TR-FRET antibody mixture containing 2 nM anti-phosphorylated MKK4 labeled with Europium cryptate (Cisbio) and 23 nM anti-HIS labeled with D2 (Cisbio) in detection buffer (25 mM Tris pH 7.5, 100 mM NaCl, 100 mM EDTA, 0.01% Tween-20, and 200 mM KF) was added to the reaction mixture. The detection mixture was incubated for 3 hours at ambient temperature and the TR-FRET was detected with an EnVision multilabel plate reader (Perkin-Elmer) using the LANCE/DELFIA Dual Enh label from Perkin-Elmer (excitation filter: UV2 (TRF) 320 and emission filters: APC 665 and Europium 615).

Molecules are shown by their SMILES.

Consider `Cc1c[nH]c2ncc(-c3nc(N4CC5COCC5C4)c4nc5n(c4n3)CCOC5(C)C)cc12` (centres undefined), for which the inhibition constant (Ki) (usually the dissociation constant of the complex between target and ligand, obtained from inhibition or displacement) was determined as 46.3 nM.

For `CC(C)n1nccc1-c1nc(-c2cnc(N)nc2)nc2c1nc1n2CCOC1(C)C`, the inhibition constant Ki stood at 1400 nM.

With `CC1(C)OCCn2c1nc1c(N3CC4COCC4C3)nc(-c3cnc(N)nc3)nc12` (centres undefined), the Ki worked out at 995 nM.

Consider `COC1C2CCC1N(c1nc(-c3cnc(N)nc3)nc3c1nc1n3CCOC1(C)C)C2` (centres undefined), for which the inhibitory constant (Ki) worked out at 223 nM.
